In publication PMC3577712 (PLoS ONE, 2013):

Key:
NA = details: cited from earlier work
A/WSN/33 = assay type: cell-based, influenza A virus
Bac-NA^WT = Bac-NA^WT (Influenza A virus, UniProt Q6DPL2); experiment: biochemical
A/WSN/33 (H1N1) = assay type: cell-based, influenza A virus
N2 NA = N2 NA (Influenza A virus, UniProt P0DOF9); experiment: biochemical
[1] = test system: influenza A/WSN/33 (H1N1); experiment: microbe, parasite or virus in culture; assay type: cell-based; details: MDCK, read-out: EC50 for viral plaque formation
[2] = test system: influenza A/Udorn/72 (H3N2); experiment: microbe, parasite or virus in culture; assay type: cell-based; details: H3N2, MDCK, read-out: EC50 for viral plaque formation

Chain of Bac-NA^WT (Q6DPL2 63-449 limits assumed): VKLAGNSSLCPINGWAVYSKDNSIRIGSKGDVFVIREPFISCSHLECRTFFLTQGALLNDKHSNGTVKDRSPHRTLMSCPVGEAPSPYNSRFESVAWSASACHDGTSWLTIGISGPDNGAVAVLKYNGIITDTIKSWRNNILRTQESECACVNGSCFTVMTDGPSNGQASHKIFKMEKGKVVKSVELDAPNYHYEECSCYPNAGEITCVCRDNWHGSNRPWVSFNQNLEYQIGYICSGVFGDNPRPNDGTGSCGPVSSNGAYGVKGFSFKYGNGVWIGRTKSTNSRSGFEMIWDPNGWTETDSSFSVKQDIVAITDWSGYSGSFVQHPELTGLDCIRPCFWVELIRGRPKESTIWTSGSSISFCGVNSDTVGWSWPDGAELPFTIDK
Chain of N2 NA (P0DOF9 whole entry, looked up): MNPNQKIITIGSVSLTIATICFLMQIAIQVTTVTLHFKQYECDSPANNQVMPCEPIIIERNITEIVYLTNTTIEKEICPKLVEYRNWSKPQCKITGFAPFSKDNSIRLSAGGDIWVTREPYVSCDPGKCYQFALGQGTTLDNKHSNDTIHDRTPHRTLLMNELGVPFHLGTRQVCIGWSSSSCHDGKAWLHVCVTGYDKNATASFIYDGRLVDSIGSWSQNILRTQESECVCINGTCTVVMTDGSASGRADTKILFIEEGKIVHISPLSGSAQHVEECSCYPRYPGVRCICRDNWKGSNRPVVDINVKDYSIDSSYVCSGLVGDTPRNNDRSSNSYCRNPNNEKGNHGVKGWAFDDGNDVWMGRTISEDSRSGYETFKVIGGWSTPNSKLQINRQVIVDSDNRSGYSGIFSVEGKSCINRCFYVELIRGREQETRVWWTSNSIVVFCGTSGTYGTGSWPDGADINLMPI

Compound | IC50 (NA) | Influenza-induced cytopathic effect (A/WSN/33) | IC50 (Bac-NA^WT) | Virus yields (fluorogenic signal of NA activity) (A/WSN/33 (H1N1)) | IC50 (N2 NA) | EC50 [1] | EC50 [2]
DANA | 10 µM |  |  |  |  |  | 
Nc1c(S(=O)(=O)O)cc(Nc2cccc(S(=O)(=O)CCOS(=O)(=O)O)c2)c2c1C(=O)c1ccccc1C2=O [RB19, Remazol Brilliant Blue R] |  | inhibits the influenza-induced cytopathic effect | 3.4 µM | dramatically reduced virus yields | 15.3 µM | 2.7 µM | 2.8 µM
